Drawing on publication PMC2982795 (Nature structural & molecular biology, 2009), this text covers Kd, Ki and KD for four molecules.

Like-named read-outs stand apart in the source and are kept apart here.

Experiment [1] addresses T1, hMSH2/MSH6 (Homo sapiens, UniProt P43246+P52701). Briefly: fluorescence anisotropy, equilibrium binding. The conditions noted are these: no DNA, labelled compound.
The target in experiment [2] is T2, hMSH2/MSH3 (Homo sapiens, UniProt P20585+P43246). Briefly: fluorescence anisotropy competition, displacement of pre-bound BD-ADP. In kind it is binding.
Experiment [3] concerns the target T2, hMSH2/MSH3. The experiment can be described thus: UV cross-linking of [alpha-32P]-AMP-PNP, SDS-PAGE. The experiment is classed as binding. The conditions noted are these: +Mg2+; no DNA.
The target of experiment [4] is T2, hMSH2/MSH3. Briefly: UV cross-linking of [alpha-32P]-ADP, SDS-PAGE. In kind it is binding. The conditions noted are these: 5 mM Mg2+; pH 8.1; no DNA; either hMSH2 or hMSH3 subunit.
For experiment [5], the target named is T1, hMSH2/MSH6. The experiment can be described thus: UV cross-linking of [alpha-32P]-ADP, SDS-PAGE. The experiment is classed as binding.

T1 sequence (P43246 2-934): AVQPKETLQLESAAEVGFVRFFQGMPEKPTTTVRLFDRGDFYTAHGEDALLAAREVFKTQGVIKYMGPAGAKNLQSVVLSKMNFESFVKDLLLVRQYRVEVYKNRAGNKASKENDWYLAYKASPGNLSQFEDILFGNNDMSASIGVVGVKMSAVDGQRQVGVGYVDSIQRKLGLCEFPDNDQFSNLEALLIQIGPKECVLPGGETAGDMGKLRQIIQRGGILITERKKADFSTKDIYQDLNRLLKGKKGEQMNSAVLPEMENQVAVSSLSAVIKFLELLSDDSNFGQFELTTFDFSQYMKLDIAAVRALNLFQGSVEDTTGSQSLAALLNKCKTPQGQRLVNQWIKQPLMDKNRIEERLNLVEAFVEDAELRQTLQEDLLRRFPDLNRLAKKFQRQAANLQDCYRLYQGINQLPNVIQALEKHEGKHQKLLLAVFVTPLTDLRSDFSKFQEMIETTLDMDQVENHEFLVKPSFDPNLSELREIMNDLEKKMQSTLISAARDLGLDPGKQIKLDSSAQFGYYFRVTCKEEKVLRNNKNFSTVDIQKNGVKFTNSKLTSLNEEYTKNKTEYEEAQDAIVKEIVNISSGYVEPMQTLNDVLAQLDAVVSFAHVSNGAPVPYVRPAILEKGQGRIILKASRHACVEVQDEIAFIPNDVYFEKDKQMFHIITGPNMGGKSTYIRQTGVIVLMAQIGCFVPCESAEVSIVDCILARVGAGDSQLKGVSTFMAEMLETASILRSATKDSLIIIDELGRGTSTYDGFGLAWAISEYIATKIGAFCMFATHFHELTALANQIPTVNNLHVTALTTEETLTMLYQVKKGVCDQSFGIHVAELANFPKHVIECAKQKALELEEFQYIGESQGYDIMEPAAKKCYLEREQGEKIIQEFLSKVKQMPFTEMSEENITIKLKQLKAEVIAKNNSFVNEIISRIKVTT
T1 sequence (P52701 whole entry): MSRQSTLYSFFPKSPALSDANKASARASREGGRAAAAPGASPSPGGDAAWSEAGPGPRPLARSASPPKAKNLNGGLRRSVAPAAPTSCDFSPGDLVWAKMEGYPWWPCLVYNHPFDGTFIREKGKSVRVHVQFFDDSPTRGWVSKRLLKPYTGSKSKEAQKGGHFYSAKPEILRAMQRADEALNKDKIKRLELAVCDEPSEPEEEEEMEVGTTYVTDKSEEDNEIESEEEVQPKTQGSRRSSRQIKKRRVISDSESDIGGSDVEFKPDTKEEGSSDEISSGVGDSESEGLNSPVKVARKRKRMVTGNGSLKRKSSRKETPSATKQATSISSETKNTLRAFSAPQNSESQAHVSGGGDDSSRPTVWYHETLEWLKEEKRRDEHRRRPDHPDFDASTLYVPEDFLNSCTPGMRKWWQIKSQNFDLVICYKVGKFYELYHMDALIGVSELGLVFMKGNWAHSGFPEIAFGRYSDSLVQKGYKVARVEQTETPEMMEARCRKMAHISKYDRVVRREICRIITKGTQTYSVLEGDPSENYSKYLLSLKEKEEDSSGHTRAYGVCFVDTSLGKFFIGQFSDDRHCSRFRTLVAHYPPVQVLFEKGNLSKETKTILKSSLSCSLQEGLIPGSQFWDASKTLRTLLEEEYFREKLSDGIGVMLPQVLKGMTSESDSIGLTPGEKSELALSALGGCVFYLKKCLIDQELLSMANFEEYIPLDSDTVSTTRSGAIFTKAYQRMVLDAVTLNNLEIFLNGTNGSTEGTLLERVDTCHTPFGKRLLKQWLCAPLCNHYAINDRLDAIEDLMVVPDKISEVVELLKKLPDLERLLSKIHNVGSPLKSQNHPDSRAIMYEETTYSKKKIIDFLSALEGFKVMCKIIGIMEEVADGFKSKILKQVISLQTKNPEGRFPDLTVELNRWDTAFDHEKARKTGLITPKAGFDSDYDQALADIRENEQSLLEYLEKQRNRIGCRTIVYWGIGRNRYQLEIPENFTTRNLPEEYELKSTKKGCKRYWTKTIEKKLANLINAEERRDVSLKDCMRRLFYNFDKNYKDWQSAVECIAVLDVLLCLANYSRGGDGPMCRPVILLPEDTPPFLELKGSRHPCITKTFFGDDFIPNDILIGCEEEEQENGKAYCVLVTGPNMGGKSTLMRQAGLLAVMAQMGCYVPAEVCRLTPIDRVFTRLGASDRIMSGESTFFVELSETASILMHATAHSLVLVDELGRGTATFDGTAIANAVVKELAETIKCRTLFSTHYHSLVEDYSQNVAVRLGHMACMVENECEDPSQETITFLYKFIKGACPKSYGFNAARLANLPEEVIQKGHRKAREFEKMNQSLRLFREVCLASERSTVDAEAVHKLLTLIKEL
T2 sequence (P43246 2-934): as the sequence (P43246 2-934) above
T2 sequence (P20585 whole entry): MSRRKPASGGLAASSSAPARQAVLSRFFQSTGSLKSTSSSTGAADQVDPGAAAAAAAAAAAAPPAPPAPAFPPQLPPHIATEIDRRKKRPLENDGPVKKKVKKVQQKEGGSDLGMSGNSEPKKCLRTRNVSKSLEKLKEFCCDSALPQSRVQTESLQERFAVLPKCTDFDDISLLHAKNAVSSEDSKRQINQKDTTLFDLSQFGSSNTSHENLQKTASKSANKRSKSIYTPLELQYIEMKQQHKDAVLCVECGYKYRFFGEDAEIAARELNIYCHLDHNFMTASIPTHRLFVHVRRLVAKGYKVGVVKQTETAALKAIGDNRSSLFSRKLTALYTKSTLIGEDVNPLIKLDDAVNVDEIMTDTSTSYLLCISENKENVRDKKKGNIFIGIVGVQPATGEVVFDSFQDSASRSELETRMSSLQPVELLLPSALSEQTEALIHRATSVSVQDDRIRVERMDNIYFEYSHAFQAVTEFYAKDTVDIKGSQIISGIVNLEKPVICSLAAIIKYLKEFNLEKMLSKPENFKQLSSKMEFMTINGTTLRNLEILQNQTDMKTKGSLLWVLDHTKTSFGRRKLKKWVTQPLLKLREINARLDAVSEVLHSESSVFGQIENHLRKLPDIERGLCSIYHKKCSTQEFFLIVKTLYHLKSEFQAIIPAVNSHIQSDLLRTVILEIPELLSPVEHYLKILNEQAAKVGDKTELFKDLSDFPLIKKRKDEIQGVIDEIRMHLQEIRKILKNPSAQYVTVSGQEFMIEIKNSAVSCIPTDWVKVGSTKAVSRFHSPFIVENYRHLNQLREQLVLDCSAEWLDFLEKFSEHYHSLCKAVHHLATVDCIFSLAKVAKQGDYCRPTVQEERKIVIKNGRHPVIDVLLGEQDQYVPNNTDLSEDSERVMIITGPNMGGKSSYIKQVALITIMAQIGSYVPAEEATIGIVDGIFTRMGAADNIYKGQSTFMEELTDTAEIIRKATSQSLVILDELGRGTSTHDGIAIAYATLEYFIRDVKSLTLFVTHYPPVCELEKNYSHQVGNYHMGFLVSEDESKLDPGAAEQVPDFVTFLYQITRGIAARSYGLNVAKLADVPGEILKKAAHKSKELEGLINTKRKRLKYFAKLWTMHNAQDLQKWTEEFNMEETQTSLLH

As to BD-ATP, at hMSH2/MSH6 [1] (no Mg2+ (non-hydrolyzing)), the Kd was determined as 390 nM.

`Nc1ncnc2c1ncn2[C@@H]1O[C@H](COP(=O)(O)OP(=O)(O)NP(=O)(O)O)[C@@H](O)[C@H]1O` [AMP-PNP] returned a Ki on hMSH2/MSH3 [2] of 11300 nM. Besides, on hMSH2/MSH3 [3], the KD entry is listed as “Results for x-linking with AMP-PNP displayed the same trend”.

For BD-AMP-PNP, the Kd at hMSH2/MSH6 [1] (read-out: binding affinity, +Mg2+) worked out at 230 nM.

On to `Nc1ncnc2c1ncn2[C@@H]1O[C@H](COP(=O)(O)OP(=O)(O)O)[C@@H](O)[C@H]1O` [ADP], for which the KD result at hMSH2/MSH3 [4] is recorded as “both subunits bound either nucleotide with high affinity, as quantified by the gel scans”. This molecule came in with a Kd on hMSH2/MSH6 [5] of 650 nM. Also, the Ki result at hMSH2/MSH3 [2] (+Mg2+, no DNA, competitive, hMSH3 subunit) is “compare KD and Ki for ADP in Supplemental Fig. 1a,c”.
